Test results published in patent US20070275944A1, “Antioxidants and methods of their use” (The Board of Trustees Operating Michigan State University, priority 2006, published 2007).

Tested on: mouse brain, dopaminergic neurons
Assay: MRI imaging of mouse brain after injection of tracer
Assay type: in vivo
Conditions: mice, MRI images 48 hours after administration
Source text: The central figure is a chimera directly comparing the left hemisphere of the control with the right hemisphere of the TP-TEMPO treated. In this central image the “Y” shaped region (1) is where the dopaminergic neurons are found.
With its dependence on the more biologically variable parameters of proton density, longitudinal relaxation time (T1), and transverse relaxation time (T2), variable image contrast can be achieved by using different pulse sequences and by changing the imaging parameters. Signal intensities on T1, T2, and proton density-weighted images relate to specific tissue characteristics. Moreover, with MRI's multi-planar capability, the imaging plane can be optimized for the anatomic area being studied, and the relationship of lesions to eloquent areas of the brain can be defined more accurately. Since T2-weighted images are most sensitive for detecting brain pathology, patients with suspected intracranial disease are typically screened using the T2-weighted regime. However, it has proven difficult to apply MRI to Parkinson's disease, as the dompaminergic neurons have the same MRI characteristics as the surrounding tissues, so that the Parkinson's lesions are invisible using conventional MRI and can only be detected using histology post-mortem. […]

SMILES: CN1CC=C(C2CC(C)(C)N(O)C(C)(C)C2)CC1 [TP-TEMPO, 2,2,6,6-tetramethyl-4-(1-methyl-1,2,3,6-tetrahydropyridin-4-yl)piperidin-1-oxyl]
- migration of probe to the dopaminergic neurons: preferentially migrated to the dopaminergic neurons
- partitioning of probe into the brain: partitioned preferentially into the brain
